Measurements from patent US9180115B2, “Cyclohexylamines” (Asana Biosciences, LLC, priority 2011, dated 2015).

System: sodium channel response in hTRPV1-N1E115 cells
Experiment: FLIPR membrane potential assay of sodium channel response in hTRPV1-N1E115 cells with or without heat (47° C.) activation
Assay type: cell-based
Details: for hTRPV1-N1E Nav 0.1 mM (% inhibition) 25° C. / hTRPV1-N1E Nav 1 mM (% inhibition) 25° C.: 25° C. (no heat activation); for hTRPV1-N1E Nav 0.1 mM (% inhibition) 47° C. / hTRPV1-N1E Nav 1 mM (% inhibition) 47° C.: 47° C. (heat activated); for IC50: read-out: hTRPV1-N1E IC50 (μM) 47° C.
Description: In one embodiment, a modified FLIPR® (Fluorometric Imaging Plate Reader) based assay system was developed which is capable of discriminating between non-specific versus hTRPV1-mediated entry of test compounds. Advantageously, the assay system utilizes heat activated opening of hTRPV1 channels followed by an assessment of internal sodium channel block. The assay allows a permanently charged compound to selectively enter through opened hTRPV1 channels and that compound's potency in inhibiting sodium channels from the cytoplasm side of the same cell can be assessed and quantified.
The test compounds are diluted in the Assay Buffer and added to each well of a specific 384-well ‘compound plate’, which serves as a source plate for compound addition using the FLIPR® platform. The concentration of compounds in the compound-plate was adjusted to achieve the desired final concentration when added to the cells in the ‘cell-plate’. After completion of the dye incubation period, the dye loaded cell-plates and the compound source plates are inserted into the FLIPR® Tetra device with a 384 FLIPR® tip box (Molecular Devices, Inc.) according to manufacturer's instructions. The compounds are robotically added to the dye loaded cell-plates using software integral to the FLIPR® Tetra instrument.
Immediately following compound addition, hTRPV1 is activated, in one of the duplicate cell plates, by heating. Specifically, entire multi-well plate containing the compound-cells mixture is incubated at 47° C. for 10 minutes, after which they are returned to room temperature (about 25° C.) for a further 30 minutes. Heat activation of hTRPV1 was omitted from the replicate cell plate which was simply maintained at room temperature for the entire 40 minutes.
A membrane potential response is elicited in the dye- and compound-loaded cells by the addition of veratridine which is a known sodium channel ‘agonist’. As illustrated in an example herein, an agonist plate containing veratridine (Sigma) is prepared in advance and is inserted into suitable devices such as, e.g., the FLIPR® TETRA device for a “2nd addition” as instructed by the manufacturer. The concentration of veratridine in the ‘agonist plate’ was adjusted to achieve a final concentration of 100 μM when added to the cells in the cell-plate. Final concentrations of veratridine greater or lesser than 100 μM may also be used but the signal measured by the FLIPR® TETRA device or another suitable device may vary accordingly.
The exposure of the cells in the cell-plate to veratridine induces sodium channels in the cells to open and the resulting ion flux produces a membrane potential depolarization that is detected as a fluorescence signal by the FLIPR® Tetra Device. The activity of test compounds is determined by their ability to attenuate the veratridine-induced fluorescence signal, the most promising compounds are those that show an enhanced activity in the heat-activated cell plate over the non-heat-activated cell plate. This differential activity reflects enhanced compound uptake via the heat activated and open hTRPV1 channels and rests on the fact that sodium channel block requires test compounds to act from the cytoplasmic side of the cell membrane.
In vitro assays were developed for assessing the inhibition of sodium channel response with compounds following stimulation by heat (47° C.) in cells expressing hTRPV1.
(v) Membrane potential Assay to Assess Sodium Channel Function in hTRPV1-Expressing Cells • Cells were plated at 5000 per 50 μL [DMEM+10% FBS+300 μg/mL H\hygromycin] per well, in a 384 clear bottom poly-D-lysine coated plate and incubated at 37° C. and 5% CO2 for 48 hours. On the day of the assay, media were discarded gently and 30 μL of the dye [FMP blue dye was prepared in assay buffer] per well was added and dye-loading was allowed to proceed for 20 min at room temperature. […]

| IC50 (47° C.) [µM] | Compound | hTRPV1-N1E Nav 0.1 mM (% inhibition) 25° C. | hTRPV1-N1E Nav 0.1 mM (% inhibition) 47° C. | hTRPV1-N1E Nav 1 mM (% inhibition) 25° C. | hTRPV1-N1E Nav 1 mM (% inhibition) 47° C. | hTRPV1-N1E Nav (% inhibition) 25° C., 0.5 mM (0.5 mM, 25° C.) | hTRPV1-N1E Nav (% inhibition) 47° C., 0.5 mM (0.5 mM, 47° C.) | hTRPV1-N1E Nav (% inhibition) 25° C., 5 mM (5 mM, 25° C.) | hTRPV1-N1E Nav (% inhibition) 47° C., 5 mM (5 mM, 47° C.) |
| --- | --- | --- | --- | --- | --- | --- | --- | --- | --- |
| 10 to 100 | CC(C[N+](C)(C)C1CCCCC1)OC(=O)c1ccc(C(C)C)cc1.[I-] (stereo not shown) [Example 4, N-[2-((4-isopropylbenzoyl)oxy)propyl]-N,N-dimethylcyclohexanaminium iodide] | 24 (N = 4) % | 86 (N = 4) % | – | – | – | – | – | – |
| – | CC(C[N+](C)(C)C1CCCCC1)OC(=O)c1ccsc1.[I-] (stereo not shown) [Example 33, N,N-Dimethyl-N-[2-((thiophene-3-carbonyl)oxy)propyl] cyclohexanaminium iodide] | 3 (N = 4) % | 36 (N = 4) % | 23 (N = 4) % | 57 (N = 4) % | – | – | – | – |
| 10 to 100 | CCc1ccc(C(=O)OC(C)C[N+](C)(C)C2CCCCC2)cc1.[I-] (stereo not shown) [Example 20, N-[2-((4-Ethylbenzoyl)oxy)propyl]-N,N-dimethyl-cyclohexanaminium iodide] | 14 (N = 4) % | 77 (N = 4) % | 46 (N = 4) % | 95 (N = 4) % | – | – | – | – |
| – | CC(C[N+](C)(C)C1CCCCC1)OC(=O)c1cccc(F)c1.[I-] (stereo not shown) [Example 14, N-[2-((3-Fluorobenzoyl)oxy)propyl]-N,N-dimethyl-cyclohexanaminium iodide] | 0 (N = 4) % | 31 (N = 4) % | 10 (N = 4) % | 66 (N = 4) % | – | – | – | – |
| 10 to 100 | CC(C[N+](C)(C)C1CCCCC1)OC(=O)c1cccc(Cl)c1Cl.[I-] (stereo not shown) [Example 29, N-[2-((2,3-Dichlorobenzoyl)oxy)propyl]-N,N-dimethyl-cyclohexanaminium iodide] | 36 (N = 4) % | 52 (N = 4) % | 50 (N = 4) % | 61 (N = 4) % | – | – | – | – |
| 100 to 1000 | CC(C[N+](C)(C)C1CCCCC1)OC(=O)c1ccccc1C(F)(F)F.[I-] (stereo not shown) [Example 17, N-[2-((2-(Trifluoromethyl)benzoyl)oxy)propyl]-N,N-dimethylcyclo-hexanaminium iodide] | 4 (N = 4) % | 54 (N = 4) % | 72 (N = 4) % | 96 (N = 4) % | – | – | – | – |
| – | CC[N+](CC)(CC(C)OC(=O)c1ccccc1)C1CCCCC1.[Cl-] (stereo not shown) [Example 3, N-[2-(benzoyloxy)propyl]-N,N-diethylcyclohexanaminium chloride] | – | – | – | – | 14 (N = 2, % | 19 (N = 2, % | 52 (N = 2, % | 67 (N = 2, % |
| 10 to 100 | CC(C[N+](C)(C)C1CCCCC1)OC(=O)c1ccc(Cl)cc1.[I-] (stereo not shown) [Example 13, N-[2-((4-Chlorobenzoyl)oxy)propyl]-N,N-dimethyl-cyclohexanaminium iodide] | 0 (N = 4) % | 44 (N = 4) % | 51 (N = 4) % | 89 (N = 4) % | – | – | – | – |
| 100 to 1000 | CC(C[N+](C)(C)C1CCCCC1)OC(=O)c1ccc(Cl)cc1Cl.[I-] (stereo not shown) [Example 10, N-[2-((2,4-Dichlorobenzoyl)oxy)propyl]-N,N-dimethyl-cyclohexanaminium iodide] | 10 (N = 4) % | 59 (N = 4) % | 61 (N = 4) % | 95 (N = 4) % | – | – | – | – |
